# Measurements taken from patent publication US9676823B2, “Selective delivery of molecules into cells or marking of cells in diseased tissue regions using environmentally sensitive transmembrane peptide” (priority 2005, dated 2017).
# Starred links: 1 amine or outer side, 2 acyl side, 3 side chain; linkers in the order of their positions; H or OH if unused. Positions of bridges follow the written chain, without caps; N, C: chain ends. Non-standard residues stand in square brackets, D forms with d. Residues, ends and D or L forms follow the SMILES beside them. No end group written: not given here. Trp(2-yl) = O=C([C@H](Cc1c([*:3])[nH]c2ccccc12)N[*:1])[*:2]; {TAMRA} = TAMRA dye attached N-terminally via two o linkers; {Cys} = C-terminal o linker then cysteine amide; Leu(4R-OH,5-OH) = C[C@](O)(CO)C[C@H](N)C(=O)O; cisHyp = O=C(O)[C@@H]1C[C@H](O)CN1
# What was measured:
# [1] = tested on: Human tumor MDA-MB-231; experiment: Whole-body fluorescence imaging of nude mice bearing MDA-MB-231 tumor; format: in vivo, mouse; conditions: 100 μl of 50 μM into tail vein, 3 mm tumor; time point not stated
# Experimental: To study the pHLIP distribution in vivo, covalently attached to the pHLIP near […] infrared fluorescent dye Cy5.5 was injected into mice bearing tumor and performed whole-body fluorescence imaging. Human tumor MDA-MB-231 was originated by injection of tumor cells (2×10^7 cells/flank/0.2 ml) in the right flank of adult athymic female nude mice. When the tumor reached the size of 3 mm in diameter, 100 μl of 50 μM of Cy5.5 alone or Cy5.5 covalently attached to the pHLIP was given as a single injection into vein tail. The imaging was performed immediately, after 1, 2, 4 hour and next day after 24 hours (FIGS. 9 and 10). The dye and peptide-dye accumulated in liver and kidney, the organs, which usually readily absorb any compounds. The ratios of (liver+kidney)/tumor were 5.9 and 3.6 in mice to which dye alone and pHLIP-dye were injected accumulation for mice. […] The accumulation of pHLIP-Cy5.5 in tumor was in 1.6 times higher than accumulation of dye alone. The ration of (liver+kidney)/tumor was 1.6 and 2.6 for pHLIP-Cy5.5 and Cy5.5 alone, respectively.
# Human breast adenocarcinoma MDA-MB-231 (HTB-26, ATCC) cells was cultured in Leibovitz's L-15 medium supplemented with 10% fetal bovine serum, 100 units/ml penicillin, 0.1 mg/ml streptomycin, 2 mM glutamine in humidified atmosphere of 5% CO2 and 95% air at 37° C. […]
# [2] = tested on: HeLa cells; experiment: Translocation and release of Phalloidin-TRITC in HeLa cells (fluorescence microscopy of actin filaments); format: cell-based, human; conditions: pH 6.0-7.4, in the presence or absence of peptide (not conjugated)
# From the text: To test the ability of pHLIP to translocate peptides across the cell membrane a water soluble cyclic peptide, phalloidin, from the Amanita phalloicles mushroom was chosen. […] Fluorescent phalloidin is commonly used to label actin filaments in permealized cells. Actin filaments stained with fluorescent phalloidin have an easily recognizable filamentous pattern, which cannot be mistaken for the other cellular structures, organelles or membrane staining. Therefore the delivery of fluorescent phalloidin by pHLIP into live cells can easily be verified by fluorescence microscopy. Fluorescently labeled phalloidin (Phalloidin-TRITC) via an S-S bond to the C-terminus of pHLIP was conjugated using a bifunctional cross-linker. Cells were incubated with a pHLIP-S-S-Phalloidin-TRITC cleavable construct at different pHs and subsequently washed with cell culture medium solution, pH 7.4. […]
# For the fluorescence microscopy studies, the cells were grown in 35 mm dishes with 10 mm glass bottom windows coated with collagen. […] The medium pH was measured before and after incubation. […] Fluorescent images were taken using an inverted epi-fluorescence microscope Olympus IX71. […] Each time fluorescence microscopy experiments were performed and observed the translocation of cargo by pHLIP, it was verified that the labeled cells were alive by using of dead cell marker SYTOX-Green (Molecular Probes).
# [3] = tested on: HeLa cells; experiment: Translocation of PNA into HeLa cells (fluorescence microscopy); format: cell-based, human; conditions: PNA without pHLIP, pH 7.4 or 6.5 (data not shown)
# [4] = tested on: HeLa cells; conditions: literature report; cited from earlier work
# [5] = tested on: actin filaments; conditions: cited from earlier work
# [6] = tested on: HeLa cells; experiment: pH-dependent delivery of dansyl dye into live HeLa cells (fluorescence microscopy); format: cell-based, human; conditions: dye alone, without peptide
# Experimental: pHLIP conjugated via a disulfide bond to dansyl dye (FIG. 3a) was tested for delivery of the dye into live HeLa cells at different pHs (FIG. 3b). The cells were incubated with the fluorescently-labeled peptide for 15 min at pH 5.5, 6.5, 7.0 or 7.4 and then washed at pH 7.4 to remove any reversibly bound peptide. […] The relative uptakes were 18%, 48%, 78% and 100% at pH7.4, 7.0, 6.5 and pH5.5, respectively.
# For the fluorescence microscopy studies, the cells were grown in 35 mm dishes with 10 mm glass bottom windows coated with collagen. Cells were washed with PBS buffer containing 1 mM CaCl2 and 1 mM MgCl2 with pH 5.5, 6.5, 7.0 or 7.4 and then incubated in PBS at the experimental pH in the absence or presence of varied concentrations (0.1-7 μM) of the pHLIP-S-S-dansyl, pHLIP-dye (TexasRed or Rhodamine), pHLIP-S-S-Phalloidin-TRITC, pHLIP-Phalloidin-TRITC or pHLIP-S-S-PNA-TAMRA constructs. The medium pH was measured before and after incubation. The time of incubation was varied from 15 to 60 min. […] Fluorescent images were taken using an inverted epi-fluorescence microscope Olympus IX71. […] Each time fluorescence microscopy experiments were performed and observed the translocation of cargo by pHLIP, it was verified that the labeled cells were alive by using of dead cell marker SYTOX-Green (Molecular Probes).
# [7] = tested on: HeLa cells; experiment: Cytotoxicity assay (CellTiter 96 AQueous One colorimetric); format: cell-based, human; conditions: concentrations up to 16 μM, 24 hrs, physiological conditions
# Experimental: (§1) The peptide's cytotoxicity and its ability to induce membrane leakage was investigated. […] Membrane leakage was tested by incubation of HeLa cells at various concentrations of peptide (up to 10 μM) at pH 7.4 and 6.5 for 1 hr, followed by the addition of cell-impermeable agents: Phalloidin-TRITC and nuclear-staining SYTOX-Orange. […] The uptake of Phalloidin-TRITC or SYTOX-Orange was 10 times less than the uptake in cells treated with triton, which used for cell membrane permeabilization.
# Cytotoxicity was tested using a standard colorimetric assay according to an established protocol provided by Promega, Inc. HeLa cells were loaded in the wells of 96 well plates (20,000 cells per well), incubated for 24 hours in DMEM supplemented with 10% FBS, 100 units/ml penicillin, 0.1 mg/ml streptomycin, 2 mM glutamine in a humidified atmosphere of 5% CO2 and 95% air at 37° C. The growth medium was then replaced with the same medium but containing 1% of FBS and increasing amounts of pHLIP (0.5, 1, 2, 4, 8 and 16 μM). After 24 hours of incubation, the solution was replaced with DMEM and a colorimetric reagent (CellTiter 96 AQueous One Solution Assay) was added for 1 hour followed by measuring absorbance at 490 nm in the plate-reader. All samples were prepared in triplicate.
# [8] = tested on: HeLa cells; experiment: Membrane leakage assay with cell-impermeable Phalloidin-TRITC and SYTOX-Orange; format: cell-based, human; conditions: peptide up to 10 μM, 1 hr, pH 6.5 or 7.4
# Experimental: as §1
# HeLa cells were loaded in 96 well plates (2,000 cells per well), incubated for 24 hours in DMEM supplemented with 10% FBS, 100 units/ml penicillin, 0.1 mg/ml streptomycin, 2 mM glutamine in a humidified atmosphere of 5% CO2 and 95% air at 37° C. The growth medium was then replaced with PBS buffer containing 1 mM CaCl2 and 1 mM MgCl2 at pH7.4 or 6.5 and increasing amounts of the peptide (0.5, 2, 5 and 10 μM). After 1 hour, 2 μM of Phalloidin-TRITC and 0.5 μM of SYTOX-Orange (Molecular Probes) were added for 10 min and, then, washed with PBS buffer, pH7.4. The rhodamine fluorescence was measured at 580 nm with excitation at 544 nm by plate-reader. The cell membrane was subsequently disrupted by adding 0.5% Triton-100 and a new portion of the 2 μM of Phalloidin-TRITC and 0.5 μM of SYTOX-Orange followed by washing with PBS. The fluorescence signal was detected before and after washing, respectively. […]
# [9] = tested on: mice; experiment: Toxicity study in mice, single intravenous injection; format: in vivo, mouse; conditions: single intravenous injection 4 mg/kg, female and male mice, observed 6 weeks
# Experimental: Preliminary toxicity study was carried out. 100 μl of 150 μM of peptide was given as a single injection in vein tail to 4 female C3D2F1 and 4 male C57/B1 mice. The final concentration was 4 mg/kg. Mice were observed by a veterinarian the day after an injection and during the next 6 weeks.
molecule,measurement,setting,value
CCN1\C(=C/C=C/C=C/C2=[N+](CCCCCC(=O)O)c3ccc4c(S(=O)(=O)O)cc(S(=O)(=O)O)cc4c3C2(C)C)C(C)(C)c2c1ccc1c(S(=O)(=O)[O-])cc(S(=O)(=O)O)cc21 [Cy5.5],"ratio of (liver+kidney)/tumor, first statement",[1],5.9
same,"ratio of (liver+kidney)/tumor, second statement",[1],2.6
Phalloidin-TRITC,fluorescent staining of actin filaments,[2],did not give fluorescent staining of actin filaments
"TAMRA-o-o-CATAGTATAAGT-o-Cys-NH2 (all peptide nucleic acid (PNA), 5' {TAMRA}, 3' {Cys}) [PNA-TAMRA]",translocation through the cell membrane,[3],No translocation
C/C1=C\[C@H](C)C[C@H](C)OC(=O)C[C@H](c2ccc(O)cc2)NC(=O)[C@@H](Cc2c(Br)[nH]c3ccccc23)N(C)C(=O)[C@H](C)NC(=O)[C@@H](C)C1 [Jasplakinolide],multinucleation of cells (reported),[4],appearance of multinucleated cells
"C[C@@H]1NC(=O)[C@H](C[C@@](C)(O)CO)NC(=O)[C@@H]2Cc3c([nH]c4ccccc34)SC[C@H](NC(=O)[C@@H]([C@H](C)O)NC1=O)C(=O)N1C[C@@H](O)C[C@H]1C(=O)N[C@@H](C)C(=O)N2 [Phalloidin] (cyclo(A[dT]C[cisHyp]A[Trp(2-yl)][Leu(4R-OH,5-OH)]); thioether 3-6)",lowering of the critical concentration for actin polymerization,[5],up to 30 fold
dansyl,penetration of cells,[6],does not penetrate cells
AAEQNPIYWARYADWLFTTPLLLLDLALLVDADEGTCG [pHLIP],cell viability,[7],does not affect cell viability
same,uptake of Phalloidin-TRITC or SYTOX-Orange in peptide-treated cells,[8],no increase in uptake
same,uptake of Phalloidin-TRITC or SYTOX-Orange relative to cells treated with triton,[8],10 times less
same,physiological and behavioral changes,[9],No physiological and behavioral changes
